Experimental data from ChEMBL document CHEMBL5385919, “A Survey of Recently Discovered Naturally Occurring Organohalogen Compounds” (J Nat Prod, 2024).
Values after ≈ are worked out from the molar mass of the structure shown. One block for each molecule: values may come before it.

How the values were obtained:
Staphylococcus aureus [1] = assay: Antibacterial activity against Staphylococcus aureus assessed as reduction in bacterial growth; type: functional
Bacillus subtilis [2] = assay: Antibacterial activity against Bacillus subtilis assessed as reduction in bacterial growth; type: functional
Plasmodium falciparum = assay: Antiplasmodial activity against Plasmodium falciparum K1 assessed as reduction in parasite growth; type: functional, organism-based
HCT-8 = assay: Cytotoxicity against human HCT-8 cells assessed as inhibition of cell growth incubated for 48 hrs by MTT assay; type: functional, cell-based; details: HCT-8, 48 h
Candida albicans = assay: Antifungal activity against Candida albicans assessed as reduction in […] growth; type: functional
Bacillus subtilis [3] = assay: Antibacterial activity against Bacillus subtilis KCTC 1021 assessed as reduction in bacterial growth incubated for 24 hrs by Mueller-Hinton broth based assay; type: functional
Kocuria rhizophila [4] = assay: Antibacterial activity against Kocuria rhizophila KCTC 1915 assessed as reduction in bacterial growth incubated for 24 hrs by Mueller-Hinton broth based assay; type: functional
Staphylococcus aureus [5] = assay: Antibacterial activity against Staphylococcus aureus KCTC 1927 assessed as reduction in bacterial growth incubated for 24 hrs by Mueller-Hinton broth based assay; type: functional
Escherichia coli = assay: Antibacterial activity against Escherichia coli assessed as reduction in bacterial growth; type: functional
Staphylococcus aureus [6] = assay: Antibacterial activity against methicillin resistant Staphylococcus aureus assessed as reduction in bacterial growth; type: functional, organism-based
RAW264.7 = assay: Antiinflammatory activity in mouse RAW264.7 cells assessed as inhibition of LPS-induced NO production pretreated with compound for 1 hr followed by LPS-induction and measured after 48 hrs by microplate reader analysis; type: functional, cell-based
HepG2 = assay: Cytotoxicity against human HepG2 cells assessed as inhibition of cell growth; type: functional, cell-based
Staphylococcus aureus [7] = assay: Antibacterial activity against Staphylococcus aureus FDA 209P JC-1 assessed as reduction in bacterial growth; type: functional
Bacillus subtilis [8] = assay: Antibacterial activity against Bacillus subtilis ATCC 6633 assessed as reduction in bacterial growth; type: functional
P388 = assay: Cytotoxicity against mouse P388 cells assessed as inhibition of cell growth; type: functional, cell-based
Kocuria rhizophila [9] = assay: Antibacterial activity against Kocuria rhizophila ATCC9341 assessed as reduction in bacterial growth; type: functional
Bacillus subtilis [10] = assay: Antibacterial activity against Bacillus subtilis PCI219 assessed as reduction in bacterial growth; type: functional
Prorocentrum minimum = assay: Antimicrobial activity against Prorocentrum minimum assessed as […] growth inhibition; type: functional
Vibrio harveyi = assay: Antimicrobial activity against Vibrio harveyi assessed as bacterial growth inhibition incubated for 12 hrs by serial dilution analysis; type: functional
[11] = test system: Trypanosoma brucei rhodesiense; assay: Antitrypanosomal activity against Trypanosoma brucei rhodesiense IL-1501 assessed as inhibition of cell growth incubated for 69 hrs by AlamarBlue assay; type: functional, organism-based
Bacillus cereus = assay: Antibacterial activity against Bacillus cereus assessed as reduction in bacterial growth; type: functional
HL-60 = assay: Cytotoxicity against human HL-60 cells assessed as inhibition of cell growth; type: functional, cell-based
MDA-MB-231 = assay: Growth inhibition of human MDA-MB-231 cells assessed inhibition of cell growth; type: functional
HeLa = assay: Cytotoxicity against human HeLa cells assessed as inhibition of cell growth; type: functional, cell-based
[12] = Inhibition of neuronal excitability in mouse Primary neocortical neuron assessed as reduction in 4-AP-induced SCO amplitude measured for 1 hr by FLIPR assay; type: functional, cell-based
[13] = Inhibition of neuronal excitability in mouse Primary neocortical neuron assessed as reduction in 4-AP-induced SCO frequency measured for 1 hr by FLIPR assay; type: functional, cell-based
A549 = assay: Cytotoxicity against human A549 cells assessed as inhibition of cell growth incubated for 48 hrs by MTT assay; type: functional, cell-based; details: A549, 48 h

SMILES: C=C(COC(=O)Cc1ccc(O)c(Cl)c1)[C@@]12O[C@@H]1[C@@]1(C)C(=CC2=O)CC[C@@H](O)[C@@H]1C
IC50 (HCT-8): 7.3 µM

SMILES: CC[C@H](C)[C@H]1O[C@@H](CC(C)=O)O[C@@]1(C)/C=C/C1=CC2=C(Cl)C(=O)[C@](C)(O)[C@H](OC(C)=O)[C@H]2CO1
MIC (Staphylococcus aureus [6]): 12.5 µg/mL (≈ 25.2 µM)

SMILES: CC(C)c1cc(=O)c2c(cc(O)c3c(=O)c4c(O)c(Br)ccc4c(=O)c32)c1=O
IC50 (Staphylococcus aureus [6]): 0.098 µg/mL (≈ 0.222 µM)
IC50 (HepG2): 9.3 µM

SMILES: COc1cc(OC)c2c(O)c3c(=O)cc(C)oc3c(-c3c(OC)cc4c(I)c(O)c5c(=O)cc(C)oc5c4c3OC)c2c1
MIC (Prorocentrum minimum): 0.61 µg/mL (≈ 0.876 µM)
MIC (Vibrio harveyi): 8 µg/mL (≈ 11.5 µM)

SMILES: Oc1cc(Br)cc(Br)c1Oc1cc(Br)c(Br)c(Br)c1Oc1ccc(Br)cc1Br
IC50 [11]: 1.2 µM

SMILES: CC(C)[C@@]1(O)/C=C/[C@](C)(O)CC[C@H](Cl)[C@@]2(C)CC[C@H](O2)[C@](C)(O)CC1
IC50 (HL-60): 3.67 µM

SMILES: CCCC[C@H]1CCCCC[C@@H](O)c2cc(O)c(c(O)c2)[C@@H](CCCC)CCC[C@@H](Cl)C[C@@H](OC)c2cc(O)c1c(O)c2
GI50 (MDA-MB-231): 0.72 µM

SMILES: C=C(COC(=O)Cc1cc(O)c(O)c(Cl)c1)[C@@]12O[C@@H]1[C@@]1(C)C(=CC2=O)CC[C@@H](O)[C@@H]1C
IC50 (HCT-8): 5.4 µM

SMILES: O=C1C=Cc2c3c4c(c(O)ccc4c4ccc(O)c1c24)[C@@H](O)[C@H](Cl)[C@@H]3O
MIC (Escherichia coli): 6.25 µM (≈ 2.3 µg/mL)

SMILES: CC(C)=C1C[C@@]2(COC(=O)Cc3cc(O)c(O)c(Cl)c3)C(=CC1=O)CC[C@@H](O)[C@@H]2C
IC50 (A549): 3.2 µM

SMILES: C=C1C[C@H](O)[C@H](Br)C(C)(C)[C@]12CC=C(COC)CC2
IC50 (HepG2): 4.08 µM

Now from value to molecule, other results behind:

MIC (Staphylococcus aureus [1]): 0.8 µg/mL
MIC (Bacillus subtilis [2]): 0.4 µg/mL
SMILES: Cc1cc(O)cc2c1[C@@H]1O[C@@](C)(Cc3cc4c(c(O)c31)C(=O)c1c(O)cc(O)c(Cl)c1C4(C)C)O2
IC50 (Plasmodium falciparum): 4.49 µM

MIC (Candida albicans): 1 µg/mL (≈ 2.54 µM)
SMILES: O=C1NC(=O)c2c1c1c3cc(Cl)ccc3[nH]c1c1[nH]c3ccc(Cl)cc3c21

MIC (Bacillus subtilis [3]): 1 µg/mL (≈ 1.88 µM)
MIC (Kocuria rhizophila [4]): 1 µg/mL (≈ 1.88 µM)
MIC (Staphylococcus aureus [5]): 1 µg/mL (≈ 1.88 µM)
SMILES: CC(C)=C(C/C=C(\C)CC[C@@H](Cl)C(C)(C)Cl)C[C@@]1(O)C(=O)c2cc(O)cc(O)c2C(=O)[C@@]1(C)Cl

MIC (Bacillus subtilis [2]): 18.5 µM
MIC (Escherichia coli): 37.5 µM (≈ 18.8 µg/mL)
SMILES: C[C@]12NC(=N)N[C@@]1(O)c1nc(-c3c[nH]c4ccccc34)cnc1-c1c2[nH]c2cc(Br)ccc12

IC50 (RAW264.7): 3.69 µM
SMILES: C#C/C=C\CC(Br)[C@@H]1C[C@@H](OC(C)=O)[C@H](CCCCCC)O1 (some centres undefined)

MIC (Staphylococcus aureus [7]): 0.049 µg/mL (≈ 0.086 µM)
MIC (Bacillus subtilis [8]): 0.098 µg/mL (≈ 0.172 µM)
SMILES: CO[C@H]1C[C@@H](O)[C@H](OC)c2oc3c4c5c(c(O)c3c(=O)c21)-c1c(cc2c(Cl)c(C)[nH]c(=O)c2c1O)C[C@H]5OCO4

MIC (Staphylococcus aureus [7]): 6.25 µg/mL (≈ 19.4 µM)
MIC (Kocuria rhizophila [9]): 6.25 µg/mL (≈ 19.4 µM)
MIC (Bacillus subtilis [10]): 6.25 µg/mL (≈ 19.4 µM)
SMILES: Cc1c(O)cc2c(c1O)C(=O)C1=C(OC(C)(C)[C@H](Cl)C1)C2=O
IC50 (P388): 9.8 µM

MIC (Bacillus cereus): 1.56 µg/mL (≈ 3.47 µM)
MIC (Staphylococcus aureus [1]): 1.56 µg/mL
SMILES: C/C=C(\C)c1c(Cl)c(O)c(C)c2c1Oc1c(C)c(O)c(Cl)c(/C(C)=C/C)c1C(=O)O2

IC50 [11]: 0.7 µM
SMILES: Oc1cc(Br)cc(Br)c1Oc1cc(Br)c(Br)c(Br)c1Oc1ccc(Br)cc1I

GI50 (MDA-MB-231): 0.72 µM
SMILES: CCCC[C@H]1CCCCC[C@@H](OC)c2cc(O)c(c(O)c2)[C@@H](CCCC)CCC[C@@H](Cl)C[C@@H](OC)c2cc(O)c1c(O)c2

MIC (Staphylococcus aureus [1]): 5.2 µM
SMILES: COc1c(Br)cc(C/C(=N/O)C(=O)NC[C@@H](O)COc2c(Br)cc([C@H]3CNC(=O)O3)cc2Br)c(O)c1Br

MIC (Staphylococcus aureus [7]): 0.001 µg/mL (≈ 0.00171 µM)
MIC (Bacillus subtilis [8]): 0.001 µg/mL (≈ 0.00171 µM)
SMILES: CO[C@H]1C[C@@H](O)[C@H](OC)c2oc3c4c5c(c(O)c3c(=O)c21)-c1c(cc2c(Cl)c(C)n(N)c(=O)c2c1O)C[C@H]5OCO4
IC50 (HeLa): 0.04 nM

EC50 [12]: 5.62 µM
EC50 [13]: 4.77 µM
SMILES: CC(C)(O)C(=O)OC[C@](C)(O)[C@H]1OC2=CC[C@@]3(C)[C@@](O)(CC[C@H]4Cc5c([nH]c6cc(Cl)ccc56)[C@@]43C)C2=CC1=O
